Measured values as given in the supplement of paper PMC5908809.

What was measured:
NK-YS (IL-2 2.5 ng/mL) [1] = test: drug sensitivity score (DSS) (DSS units); higher = more sensitive; extreme values may be limits of the assay; settings: 72 h
SNK-6 (IL-2 2.5 ng/mL) [2] = test: as above; settings: 72 h
[3] = system: normal primary NK cells, pool 1 (3 donors) (IL-2 2.5 ng/mL); test: as above; settings: 72 h
KAI3 (IL-2 2.5 ng/mL) [4] = test: as above; settings: 72 h
[5] = system: normal primary NK cells, pool 2 (3 donors) (IL-2 2.5 ng/mL); test: as above; settings: 72 h
[6] = system: normal primary NK cells, pool 3 (3 donors) (IL-2 2.5 ng/mL); test: as above; settings: 72 h
KHYG-1 (IL-2 2.5 ng/mL) [7] = test: as above; settings: 72 h
[8] = system: normal primary NK cells, pool 1 (3 donors), resting (IL-2 0 ng/mL); test: as above; settings: 72 h
DERL-7 (IL-2 2.5 ng/mL) [9] = test: as above; settings: 72 h
IMC-1 (IL-2 20 ng/mL) [10] = test: as above; settings: 72 h
YT (IL-2 2.5 ng/mL) [11] = test: as above; settings: 72 h
NKL (IL-2 2.5 ng/mL) [12] = test: as above; settings: 72 h
NK-92 (IL-2 2.5 ng/mL) [13] = test: as above; settings: 72 h
NK-YS (IL-2 2.5 ng/mL) [14] = test: percent inhibition of viability; higher = more inhibition; settings: 72 h
SNK-6 (IL-2 2.5 ng/mL) [15] = test: as above; settings: 72 h
[16] = system: normal primary NK cells, pool 1 (3 donors) (IL-2 2.5 ng/mL); test: as above; settings: 72 h
KAI3 (IL-2 2.5 ng/mL) [17] = test: as above; settings: 72 h
[18] = system: normal primary NK cells, pool 2 (3 donors) (IL-2 2.5 ng/mL); test: as above; settings: 72 h
[19] = system: normal primary NK cells, pool 3 (3 donors) (IL-2 2.5 ng/mL); test: as above; settings: 72 h
KHYG-1 (IL-2 2.5 ng/mL) [20] = test: as above; settings: 72 h
[21] = system: normal primary NK cells, pool 1 (3 donors), resting (IL-2 0 ng/mL); test: as above; settings: 72 h
DERL-7 (IL-2 2.5 ng/mL) [22] = test: as above; settings: 72 h
IMC-1 (IL-2 20 ng/mL) [23] = test: as above; settings: 72 h
YT (IL-2 2.5 ng/mL) [24] = test: as above; settings: 72 h
NKL (IL-2 2.5 ng/mL) [25] = test: as above; settings: 72 h
NK-92 (IL-2 2.5 ng/mL) [26] = test: as above; settings: 72 h
[27] = system: normal NK cells expanded with K562-aAPC; test: as above; settings: 72 h, IL-2 2.5 ng/mL
Protocol: (§1)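 Drug sensitivity and resistance testing on K562-aAPC-expanded normal NK cells: 5 concentrations (10-fold steps over a 10,000-fold range), 72 h at 37 °C, viability by CellTiter-Glo normalised to DMSO and benzethonium chloride controls; DSS from the fitted curve.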

[28] = system: normal NK cells expanded with K562-aAPC; test: drug sensitivity score (DSS) (DSS units); higher = more sensitive; extreme values may be limits of the assay; settings: 72 h; IL-2 2.5 ng/mL
Protocol: as §1

Cc1cc(OCc2nnc(SC3CCCC3)n2-c2cccnc2)ccc1-c1ccc(S(C)(=O)=O)cc1 [NMS-873] (max concentration tested 10000 nM)
Settings | drug sensitivity score
DERL-7 (IL-2 2.5 ng/mL) [9] | 9.55
IMC-1 (IL-2 20 ng/mL) [10] | 26.4
KAI3 (IL-2 2.5 ng/mL) [4] | 10.4
KHYG-1 (IL-2 2.5 ng/mL) [7] | 17.9
NK-92 (IL-2 2.5 ng/mL) [13] | 14.8
NK-YS (IL-2 2.5 ng/mL) [1] | 22.1
NKL (IL-2 2.5 ng/mL) [12] | 14.6
SNK-6 (IL-2 2.5 ng/mL) [2] | 9.51
YT (IL-2 2.5 ng/mL) [11] | 26.1
[3] | 11.4
[5] | 12.2
[6] | 8.69
[8] | 13.7
[28] | 9.28

percent inhibition of viability [%]
Settings | 1 nM | 10 nM | 100 nM | 1000 nM | 10000 nM
DERL-7 (IL-2 2.5 ng/mL) [22] | 8.88 | 2.79 | 15.8 | 34.8 | 101
IMC-1 (IL-2 20 ng/mL) [23] | 2.03 | 32.2 | 95.6 | 39.2 | 101
KAI3 (IL-2 2.5 ng/mL) [17] | 3.12 | 7.92 | 11.3 | 35.3 | 105
KHYG-1 (IL-2 2.5 ng/mL) [20] | 3.36 | 6 | 38 | 65.7 | 107
NK-92 (IL-2 2.5 ng/mL) [26] | -7.23 | -12.4 | 12.5 | 70.3 | 107
NK-YS (IL-2 2.5 ng/mL) [14] | 6.01 | 11.3 | 46.8 | 84.8 | 107
NKL (IL-2 2.5 ng/mL) [25] | 11.2 | 14.7 | 26 | 52 | 106
SNK-6 (IL-2 2.5 ng/mL) [15] | 0.98 | 31.4 | 15.3 | 33.6 | 101
YT (IL-2 2.5 ng/mL) [24] | -2.33 | 20.6 | 83.1 | 56.4 | 106
[16] | 6.16 | -1.92 | 22 | 43.5 | 98.7
[18] | -5.68 | 4.07 | 30.6 | 39.7 | 97.8
[19] | -2.38 | 0.99 | 24.8 | 27 | 99.8
[21] | -8.11 | -16.4 | 24.5 | 58.2 | 91.2
[27] | 0.72 | 5.79 | 5.95 | 24.3 | 101
